Source: ChEMBL document CHEMBL1201862, “PubChem BioAssay data set” (2004)
Calls of active or inactive are those of the source.

What was measured:
[1] = target: T1, Heat shock factor protein 1 (Mus musculus, UniProt P38532); experiment: inhibition of MG132-induced HSE-luciferase signal, confirmation, cell-based, NIH3T3, luminescence, dose retest (AID 2382); type: functional;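 note: NIH3T3 fibroblasts with HSF1-driven luciferase reporter stressed by proteasome inhibitor MG132; luminescence from HSF1-driven luciferase expression after 8 hours of MG132 stress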
T1 sequence (P38532 whole entry): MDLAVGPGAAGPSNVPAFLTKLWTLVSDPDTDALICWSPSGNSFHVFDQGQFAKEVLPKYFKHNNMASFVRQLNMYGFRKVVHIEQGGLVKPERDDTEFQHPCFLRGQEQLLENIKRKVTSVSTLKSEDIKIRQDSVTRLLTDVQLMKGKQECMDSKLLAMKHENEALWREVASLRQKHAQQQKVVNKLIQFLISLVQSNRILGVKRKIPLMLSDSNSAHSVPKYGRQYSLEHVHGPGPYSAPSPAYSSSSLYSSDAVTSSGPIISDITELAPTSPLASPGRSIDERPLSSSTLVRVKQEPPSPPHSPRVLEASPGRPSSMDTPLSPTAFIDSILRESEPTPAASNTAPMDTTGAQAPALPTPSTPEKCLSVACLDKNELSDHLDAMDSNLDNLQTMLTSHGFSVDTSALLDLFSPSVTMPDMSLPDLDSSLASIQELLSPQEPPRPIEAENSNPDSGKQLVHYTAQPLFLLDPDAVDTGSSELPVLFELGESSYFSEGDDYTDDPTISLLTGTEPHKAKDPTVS

Cytochrome P450 1A2 = target: T2, Cytochrome P450 1A2 (Homo sapiens, UniProt P05177);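 note: PubChem cytochrome P450 panel assay, CYP1A2 panel member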
T2 sequence (P05177 whole entry): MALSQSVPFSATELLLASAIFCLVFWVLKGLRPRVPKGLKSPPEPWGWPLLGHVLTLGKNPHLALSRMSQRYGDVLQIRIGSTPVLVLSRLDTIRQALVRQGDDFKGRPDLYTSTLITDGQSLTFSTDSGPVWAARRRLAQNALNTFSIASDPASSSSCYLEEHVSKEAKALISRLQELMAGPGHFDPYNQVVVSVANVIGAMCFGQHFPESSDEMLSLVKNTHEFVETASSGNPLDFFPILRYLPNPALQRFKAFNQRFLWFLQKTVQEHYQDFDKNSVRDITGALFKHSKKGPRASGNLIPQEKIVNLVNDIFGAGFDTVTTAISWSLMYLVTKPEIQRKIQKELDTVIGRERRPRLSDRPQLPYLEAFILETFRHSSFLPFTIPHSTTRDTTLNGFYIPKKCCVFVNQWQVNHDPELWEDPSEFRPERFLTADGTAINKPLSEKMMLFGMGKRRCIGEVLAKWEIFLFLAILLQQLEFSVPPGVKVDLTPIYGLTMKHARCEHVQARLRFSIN

Cytochrome P450 2C19 = Cytochrome P450 2C19 (Homo sapiens, UniProt P33261); experiment: Cytochrome panel assay with activity outcomes. Panel member name: p450-cyp2c19 Compounds with AC50 equal or less than 10 uM are considered active; type: functional
Cytochrome P450 3A4 = Cytochrome P450 3A4 (Homo sapiens, UniProt P08684);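 note: CYP3A4 tested as one member of a cytochrome P450 panel screen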
Cytochrome P450 2D6 = Cytochrome P450 2D6 (Homo sapiens, UniProt P10635);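 note: CYP2D6 member of a cytochrome P450 panel assay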
[2] = P. falciparum Dd2 growth inhibitors, dose response, SYBR Green, cherry-picked samples (AID 1159567); type: functional, cell-based

Cytochrome P450 2C19, sequence (P33261 whole entry): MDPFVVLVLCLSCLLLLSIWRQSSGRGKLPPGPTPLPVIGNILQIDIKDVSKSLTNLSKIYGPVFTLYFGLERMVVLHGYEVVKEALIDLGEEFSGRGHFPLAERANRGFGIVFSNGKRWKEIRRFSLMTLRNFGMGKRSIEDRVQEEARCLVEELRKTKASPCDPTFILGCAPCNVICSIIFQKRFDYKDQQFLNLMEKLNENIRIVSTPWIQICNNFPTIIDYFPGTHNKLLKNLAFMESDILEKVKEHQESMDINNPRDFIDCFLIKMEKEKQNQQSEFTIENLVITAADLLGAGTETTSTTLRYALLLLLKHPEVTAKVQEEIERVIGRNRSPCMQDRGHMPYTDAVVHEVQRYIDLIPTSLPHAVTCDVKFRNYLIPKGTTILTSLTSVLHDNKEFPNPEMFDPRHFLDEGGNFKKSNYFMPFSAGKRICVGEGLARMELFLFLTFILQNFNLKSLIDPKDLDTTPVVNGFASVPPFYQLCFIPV
Cytochrome P450 2D6, sequence (P10635 whole entry): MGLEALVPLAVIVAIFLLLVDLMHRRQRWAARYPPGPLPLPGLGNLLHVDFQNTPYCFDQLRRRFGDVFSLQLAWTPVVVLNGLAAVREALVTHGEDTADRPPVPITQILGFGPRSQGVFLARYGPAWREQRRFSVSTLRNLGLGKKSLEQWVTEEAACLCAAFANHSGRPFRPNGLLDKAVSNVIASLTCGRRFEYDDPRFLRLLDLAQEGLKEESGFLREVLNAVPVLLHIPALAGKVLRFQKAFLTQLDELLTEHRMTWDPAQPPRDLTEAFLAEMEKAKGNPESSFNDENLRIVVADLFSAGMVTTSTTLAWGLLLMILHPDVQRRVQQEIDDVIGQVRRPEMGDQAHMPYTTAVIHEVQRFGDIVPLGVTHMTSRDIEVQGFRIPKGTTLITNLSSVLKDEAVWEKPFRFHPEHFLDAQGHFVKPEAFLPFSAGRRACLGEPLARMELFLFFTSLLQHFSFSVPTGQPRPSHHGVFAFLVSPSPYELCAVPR
Cytochrome P450 3A4, sequence (P08684 whole entry): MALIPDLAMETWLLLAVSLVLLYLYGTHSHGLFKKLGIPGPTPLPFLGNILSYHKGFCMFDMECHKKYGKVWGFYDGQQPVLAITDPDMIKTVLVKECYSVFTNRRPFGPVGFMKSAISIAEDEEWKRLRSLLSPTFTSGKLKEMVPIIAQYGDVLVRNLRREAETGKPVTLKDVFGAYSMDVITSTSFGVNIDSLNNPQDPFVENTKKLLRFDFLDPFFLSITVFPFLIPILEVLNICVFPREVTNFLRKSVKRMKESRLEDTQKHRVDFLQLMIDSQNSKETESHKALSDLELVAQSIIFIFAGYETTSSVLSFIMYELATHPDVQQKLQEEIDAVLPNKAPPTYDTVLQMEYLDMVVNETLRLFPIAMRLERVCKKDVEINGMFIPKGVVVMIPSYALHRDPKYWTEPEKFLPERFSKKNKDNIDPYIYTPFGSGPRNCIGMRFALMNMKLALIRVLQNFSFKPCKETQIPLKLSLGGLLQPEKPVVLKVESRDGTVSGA

N#C/C(=C\c1ccccn1)c1ccccn1
EC50 [1]: > 195 µM (not active)

Cc1ccc(N(Cc2cc3ccc(C)cc3nc2O)C(=O)c2cccs2)cc1
EC50 [1]: > 195 µM (not active)

Cc1onc(-c2c(F)cccc2Cl)c1C(=O)c1ccccc1
EC50 [1]: > 195 µM (not active)

O=C1/C(=C\c2ccccc2)C[C@@]2(O)[C@H]3Cc4ccc(O)c5c4[C@@]2(CCN3CC2CC2)[C@@H]1O5
AC50 (Cytochrome P450 1A2): 31.6 µM (inconclusive) | AC50 (Cytochrome P450 2C19; read-out: AC50): 15.8 µM (inconclusive) | AC50 (Cytochrome P450 3A4): 31.6 µM (inconclusive)

CCCNC(=O)c1ccc(N2CCC3(CC2)CC(c2cccc(Br)c2)=NO3)c(NC(=O)c2ccc(Br)cc2)c1
EC50 [1]: > 195 µM (not active)

Cc1ccc(NC2=NC(=O)/C(=C\c3cccs3)S2)cc1C
EC50 [1]: > 195 µM (not active)

CCCCn1c(C(C)NC(=O)CC)nc2ccccc21 (centres undefined)
EC50 [1]: > 195 µM (not active)

Cc1c2cccc(Sc3ccccc3)c2c2c3c(cccc13)[S+](c1ccccc1)C2 (centres undefined)
AC50 (Cytochrome P450 2D6): 5.01 µM (inconclusive) | AC50 (Cytochrome P450 3A4): 3.16 µM (inconclusive)

C[C@@H](C(=O)Nc1ccc2ccccc2c1)[C@H]1C[C@]1(C)[C@H](NC(=O)c1cnccn1)c1ccccc1
AC50 (Cytochrome P450 1A2): 25.1 µM (inconclusive)

Cn1c(C(=O)O)c(CC(=O)Nc2ccc3c(c2)OCCO3)c2ccccc21
EC50 [1]: 1.95 µM (active)

COc1cccc(N(CC(=O)Nc2cccnc2)S(C)(=O)=O)c1
EC50 [1]: > 195 µM (not active)

COc1ncc2nc(-c3cccs3)c(=O)n(Cc3cccs3)c2n1
AC50 (Cytochrome P450 2D6): 3.98 µM (inconclusive)

O=C(CSc1ccccn1)Nc1nc2ccc(Br)cc2s1
AC50 (Cytochrome P450 2D6): 15.8 µM (inconclusive) | AC50 (Cytochrome P450 3A4): 22.4 µM (inconclusive)

Cc1noc(C)c1-c1cc(NC2CC2)ncn1
AC50 (Cytochrome P450 2C19; read-out: AC50): 31.6 µM (inconclusive) | AC50 (Cytochrome P450 2D6): 20 µM (inconclusive) | AC50 (Cytochrome P450 3A4): 25.1 µM (inconclusive)

Cc1ccc(Cn2nc(C)c(NC(=O)c3cc(-c4ccco4)on3)c2C)cc1
AC50 (Cytochrome P450 1A2): 39.8 µM (inconclusive)

O=[N+]([O-])c1cccc(-c2nnc(-c3ccccc3)o2)c1
EC50 [1]: > 195 µM (not active)

CC(=O)N1CCC2(CC1)CCN(c1cccc(-c3ccccc3)c1)CC2
AC50 (Cytochrome P450 2D6): 31.6 µM (inconclusive)

CON(c1nc(N(C)C)nc(N(C)C)n1)S(=O)(=O)c1ccccc1Cl
AC50 (Cytochrome P450 1A2): 14.1 µM (inconclusive) | AC50 (Cytochrome P450 2D6): 25.1 µM (inconclusive)

COc1ccc(NS(=O)(=O)NC(=O)c2cn(C)c3ccccc23)cc1
EC50 [1]: > 195 µM (not active)

Cc1cccc(CNc2ccnc(-c3cccc(NS(C)(=O)=O)c3)n2)c1
AC50 (Cytochrome P450 2D6): 39.8 µM (inconclusive)

CCn1c(SCC(=O)N(C)C2CCS(=O)(=O)C2)nnc1-c1cccs1 (centres undefined)
EC50 [1]: > 195 µM (not active)

Cc1cc(Cc2cc(Cc3cc(C)cc(C(C)(C)C)c3O)c(C)cc2C)c(O)c(C(C)(C)C)c1
AC50 (Cytochrome P450 2D6): 3.98 µM (inconclusive)

CC(Sc1nc(NCc2ccccc2)nc(N(C)C)n1)C(=O)Nc1ccccc1 (centres undefined)
AC50 (Cytochrome P450 2D6): 15.8 µM (inconclusive)

CC1CN(C(=O)Nc2ccc3c(c2)OCCO3)CC(C)O1 (centres undefined)
EC50 [1]: > 195 µM (not active)

Cc1ccccc1-c1cc(Nc2ccc(F)cc2)ncn1
AC50 (Cytochrome P450 2D6): 31.6 µM (inconclusive) | AC50 (Cytochrome P450 3A4): 39.8 µM (inconclusive)

O=C1c2ccccc2C(Nc2ccc3c(c2)OCCO3)N1c1ccccn1 (centres undefined)
EC50 [1]: 57.5 µM (active)

c1cc(C2N3CCCN2CC3)ccn1 (centres undefined)
AC50 (Cytochrome P450 1A2): 1.26 µM (inconclusive) | AC50 (Cytochrome P450 2C19): inconclusive

O=C(O)c1cccc(N2C(=O)/C(=C/c3ccc([N+](=O)[O-])cc3)C=C2c2ccccc2)c1
EC50 [1]: > 195 µM (not active)

CCCOc1ccc(OCCNC2CCCC2)cc1
AC50 (Cytochrome P450 1A2): 14.1 µM (inconclusive) | AC50 (Cytochrome P450 2C19; read-out: AC50): 31.6 µM (inconclusive)

Cc1cc2ccccc2c(=O)n1CC(=O)Nc1ccc2c(c1)OCO2
EC50 [1]: > 195 µM (not active)

O=C(CNC1CCCCCC1)Nc1ccccc1N1CCCCC1
AC50 (Cytochrome P450 1A2): 14.1 µM (inconclusive)

CSc1ccccc1NC(=O)C1=CC(c2ccc(C)cc2)=NS(=O)(=O)N1C
EC50 [1]: > 195 µM (not active)

Cc1ccccc1-c1nccc(NCCN2CCOCC2)n1
AC50 (Cytochrome P450 2D6): 31.6 µM (inconclusive)

CC(=O)Cc1c[nH]c2ccccc12
EC50 [1]: > 195 µM (not active)

CS(=O)(=O)Nc1cccc(-c2nccc(NCc3cccs3)n2)c1
AC50 (Cytochrome P450 2C19; read-out: AC50): 25.1 µM (inconclusive) | AC50 (Cytochrome P450 2D6): 25.1 µM (inconclusive)

O=C(CSc1ccc(Br)cc1)Nc1ccccc1N1CCOCC1
EC50 [1]: > 195 µM (not active)

O=C(c1ccncc1)N1CCC2(CC1)CN(c1ncccn1)C2
AC50 (Cytochrome P450 1A2): 6.31 µM (inconclusive) | AC50 (Cytochrome P450 2D6): 20 µM (inconclusive)

COc1cc(C(=O)Nc2ccc3c(c2)OCCO3)c(-n2cnnn2)cc1OC
AC50 (Cytochrome P450 1A2): 2.51 µM (inconclusive) | AC50 (Cytochrome P450 2C19): inconclusive | AC50 (Cytochrome P450 3A4): 25.1 µM (inconclusive)

C[C@@H]1CN([C@H](C)CO)C(=O)c2cccc(NS(=O)(=O)c3ccccc3)c2O[C@H]1CN(C)Cc1ccc(-c2ccccc2)cc1
AC50 [2]: 3.68 µM (active)

O=C(c1ccccc1F)N1CC[C@H]2[C@H](CO)Nc3ccc(C#Cc4ccc(F)cc4)cc3[C@H]21
AC50 [2]: 4.96 µM (active)

O=C(Nc1cccc(F)c1)N[C@@H]1CC[C@H](CCNS(=O)(=O)c2cccc(Cl)c2)O[C@H]1CO
AC50 [2]: 31.2 µM (active)

COc1cccc(-c2ccc3c(c2)[C@@H]2[C@@H](CCN2C(=O)C2CCCCC2)[C@H](CO)N3)c1
AC50 [2]: 4.18 µM (active)

O=C(C[C@H]1C[C@H]2c3cc(NC(=O)Cc4ccncc4)ccc3O[C@H]2[C@H](CO)O1)NCc1ccccc1
AC50 [2]: 4.55 µM (active)

COc1ccc2c3c([nH]c2c1)[C@H](CO)N(Cc1cc(F)ccc1F)CC31CN(C(=O)C2CCC2)C1
AC50 [2]: 7.04 µM (active)

OC[C@@H]1CC[C@@H]2O[C@H](CCc3ccc(C#Cc4ccccc4)cc3)[C@H](n3cc(-c4ccccc4)nn3)C[C@@H]2O1
AC50 [2]: 3.86 µM (active)

COc1ccc2c3c([nH]c2c1)[C@H](CO)N(Cc1ccc(F)cc1)CC31CCN(C(C)=O)CC1
AC50 [2]: 5.92 µM (active)

C[C@@H]1CN([C@@H](C)CO)C(=O)c2c(c3ccccc3n2C)-c2ccccc2CO[C@H]1CN(C)C(=O)Cc1ccccc1
AC50 [2]: 5.21 µM (active)

C/C=C/c1ccc([C@H]2[C@@H](CO)N(C(=O)CC)[C@@H]2CNCC2CCCCC2)cc1
AC50 [2]: 4.04 µM (active)

CN1CCN([C@@H]2Cc3ccccc3Sc3ccc(Cl)cc32)CC1
AC50 (Cytochrome P450 1A2): 12.6 µM (inconclusive) | AC50 (Cytochrome P450 2C19; read-out: AC50): 25.1 µM (inconclusive)
